Measured values published in patent publication US20090176732A1, “PROTECTED NUCLEOTIDE ANALOGS” (Alios BioPharma Inc., priority 2007, published 2009).

Experiments:
[1] = system: HCV RNA-replicating cell line, AVA5 (genotype 1b, subgenomic replicon); test: HCV replicon assay, intracellular HCV RNA levels by blot hybridization; format: cell-based, HCV genotype 1b; details: for EC50: concentration giving 2-fold depression of HCV RNA vs untreated cultures; for EC50 / EC90: normalized to β-actin RNA, daily treatment for three days, assessed at 72 hours, ± S.D.; for EC90: concentration giving 10-fold depression of HCV RNA vs untreated cultures; for Antiviral activity (in words): summary of the Table 1 results in the text
Method: Antiviral activity of the test compounds was assessed (Okuse, et al., Antivir. Res. (2005) 65:23) in the stably HCV RNA-replicating cell line, AVA5 (genotype 1b, subgenomic replicon, Blight, et al., Sci. (2000) 290:1972). Compounds were added to dividing cultures daily for three days. […] Intracellular HCV RNA levels and cytotoxicity were assessed 72 hours after treatment.
Intracellular HCV RNA levels were measured using a conventional blot hybridization method, in which HCV RNA levels are normalized to the levels of β-actin RNA in each individual culture (Okuse, et al., Antivir. Res. (2005) 65:23). Cytotoxicity was measured using an established neutral red dye uptake assay (Korba and Gerin, Antivir. Res. (1992) 19:55; Okuse, et al., Antivir. Res. (2005) 65:23). HCV RNA levels in the treated cultures are expressed as a percentage of the mean levels of RNA detected in untreated cultures. The absorbance of the internalized dye at 510 nM (A510) was used for quantitative analysis.
Values presented (±standard deviations [S.D.]) were calculated by linear regression analysis using data combined from all treated cultures. S.D. was calculated using the standard error of regression generated from the linear regression analyses (QuattroPro™).

AVA5 cell line = details: concentration giving 2-fold depression of neutral red dye uptake vs untreated cultures; daily treatment for three days, assessed at 72 hours; ± S.D.
Method: Compounds were added to dividing cultures daily for three days. […] Intracellular HCV RNA levels and cytotoxicity were assessed 72 hours after treatment.
Quadruplicate cultures for HCV RNA levels and cytoxicity (on 96-well plates) were used. A total of 12 untreated control cultures, and triplicate cultures treated with α-interferon (concentrations of: 10 IU/mL, 3.3 IU/mL, 1.1 IU/mL and 0.37 IU/mL) and 2′C-Me-C (concentrations of: 30 μM, 10 μM, 3.3 μM and 1.1 μM) served as assay controls.
HCV RNA levels in the treated cultures are expressed as a percentage of the mean levels of RNA detected in untreated cultures. The absorbance of the internalized dye at […] (A510) was used for quantitative analysis.
Compounds were dissolved in 100% tissue culture grade DMSO (Sigma, Inc.) at 10 mM. Aliquots of test compounds sufficient for one daily treatment were made in individual tubes and all material was stored at −20° C. For the test, the compounds were suspended into culture medium at room temperature, and immediately added to the cell cultures. Compounds were analyzed separately in two groups with separate assay controls. The concentrations of the test compounds were run at concentrations of 10 μM, 3.3 μM, 1.1 μM and 0.37 μM.

| SMILES | EC50 [1] [nM] | EC90 [1] [µM] | Antiviral activity (in words) [1] | CC50 (AVA5 cell line) [µM] |
| --- | --- | --- | --- | --- |
| COC(=O)[C@H](C)NP(=O)(OC[C@H]1O[C@@H](n2cnc(C(N)=O)n2)[C@H](O)[C@@H]1O)Oc1ccccc1 (some centres unmarked) [Compound 12] | > 100000 | > 100 | inactive | > 100 |
| CCOC(=O)C(COC(C)=O)(COP(=O)(OC[C@H]1O[C@@H](n2cnc(C(N)=O)n2)[C@H](O)[C@@H]1O)OCC(COC(C)=O)(C(=O)OCC)C(=O)OCC)C(=O)OCC [Compound 14, Ribavirin 5′-bis[3-acetyloxy-2,2-bis(ethoxycarbonyl)propyl]phosphate] | 1600 ± 200 | 4.4 ± 0.4 | markedly more active compared to compound 12 | 9.7 ± 0.2 |
